How the values were obtained:
Test in all cases: relative viability (nuclei count vs DMSO), 5 days (fraction); higher = more cells survive
[1] = compound: C1=CC=C2C(=C1)N=C(S2)C(C#N)C3=NC(=NC=C3)NCCC4=CN=CC=C4 + CC1(C)CCC(c2ccc(Cl)cc2)=C(CN2CCN(c3ccc(C(=O)NS(=O)(=O)c4ccc(N[C@H](CCN5CCOCC5)CSc5ccccc5)c(S(=O)(=O)C(F)(F)F)c4)cc3)CC2)C1 [Navitoclax] (partner 0.5 µM)
Procedure, shortened: (§1)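 Relative viability divides the nuclei count in treated wells by that in vehicle wells. Lung cancer cell lines were seeded in 1536-well plates, dosed by pin tool the next day, and fixed and stained after 5 days in one step with final 0.05% Triton X-100, 1% formaldehyde and 1 ug/ml Hoechst. Dosing was a single drug or a fixed anchor-drug dose plus five library-drug doses (not always all listed) in √10 steps, and values are medians of duplicate plates imaged at 4×.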

[2] = compound: C1=CC=C2C(=C1)N=C(S2)C(C#N)C3=NC(=NC=C3)NCCC4=CN=CC=C4 + Cc1nc(Nc2ncc(C(=O)Nc3c(C)cccc3Cl)s2)cc(N2CCN(CCO)CC2)n1 [Dasatinib] (partner 0.075 µM)
Procedure, shortened: as §1

Vandetanib + Lapatinib = compound: COc1cc2/c(=N/c3ccc(Br)cc3F)nc[nH]c2cc1OCC1CCN(C)CC1 [Vandetanib] + CS(=O)(=O)CCNCc1ccc(-c2ccc3ncnc(Nc4ccc(OCc5cccc(F)c5)c(Cl)c4)c3c2)o1 [Lapatinib] (partner 2 µM)
Procedure, shortened: as §1

Vandetanib + Crizotinib = compound: COc1cc2/c(=N/c3ccc(Br)cc3F)nc[nH]c2cc1OCC1CCN(C)CC1 [Vandetanib] + C[C@@H](Oc1cc(-c2cnn(C3CCNCC3)c2)cnc1N)c1c(Cl)ccc(F)c1Cl [Crizotinib] (partner 1 µM)
Procedure, shortened: as §1

Cell Line: UMC-11
- relative viability ([1]; first compound 0.005 µM): 0.28
- relative viability ([1]; first compound 0.01581 µM): 0.304
- relative viability ([1]; first compound 0.05 µM): 0.294
- relative viability ([1]; first compound 0.1581 µM): 0.307
- relative viability ([1]; first compound 0.5 µM): 0.306
- relative viability ([2]; first compound 0.005 µM): 0.257
- relative viability ([2]; first compound 0.01581 µM): 0.481
- relative viability ([2]; first compound 0.05 µM): 0.447
- relative viability ([2]; first compound 0.1581 µM): 0.583
- relative viability ([2]; first compound 0.5 µM): 0.379
- relative viability (Vandetanib + Lapatinib; first compound 0.02 µM): 0.816
- relative viability (Vandetanib + Lapatinib; first compound 0.06325 µM): 0.961
- relative viability (Vandetanib + Lapatinib; first compound 0.2 µM): 0.664
- relative viability (Vandetanib + Lapatinib; first compound 0.6325 µM): 0.892
- relative viability (Vandetanib + Lapatinib; first compound 2 µM): 1.01
- relative viability (Vandetanib + Crizotinib; first compound 0.02 µM): 0.588
- relative viability (Vandetanib + Crizotinib; first compound 0.06325 µM): 0.654
- relative viability (Vandetanib + Crizotinib; first compound 0.2 µM): 0.632
- relative viability (Vandetanib + Crizotinib; first compound 0.6325 µM): 0.494
- relative viability (Vandetanib + Crizotinib; first compound 2 µM): 0.61

Reference: the supplement of paper PMC10307832
